Test results from patent US7781454B2 (priority 2006, dated 2010).
Counter-ions that a name gives are not always drawn. Like-named read-outs stand apart in the source and are kept apart here.

Legend:
[1] = target: T1, mutant HIV reverse transcriptase (Y181C mutation) (Human immunodeficiency virus type 1 group M subtype B, UniProt P04585, Y768C); assay: ECL assay for inhibition of mutant HIV reverse transcriptase (Y181C); assay type: biochemical
T1 construct: against mutant HIV reverse transcriptase; made in house
Description: (§1) 100 μL reaction mixtures were initiated with a combination of primer-template substrate ([…]) and dNTPs (0.6 μM dNTPs, 1.25 μM BrdUTP). The heterodimeric nucleic acid substrate was generated by annealing the DNA primer pD500 (described in Shaw-Reid et al., J. Biol. Chem., 278: 2777-2780; obtained from Integrated DNA Technologies) to t500, a 500 nucleotide RNA template created by in vitro transcription (see Shaw-Reid et al., J. Biol. Chem., 278: 2777-2780). After 1 hour incubation at 37° C., reactions were quenched by 10 μL of 1 N NaOH. Microtiter plates were incubated for an additional 30 minutes at room temperature and then neutralized with 10 μL of 1 N HCl. A mixture of detection buffer containing ruthenylated anti-BrdU antibody and streptavidin coated magnetic beads were added to the plate and incubated at room temperature for 1.5 hours prior to quantification via electrochemiluminescence instrument.
(§2) Analogous assays were conducted substituting mutant HIV strains to determine the in vitro inhibition of compounds of the present invention against mutant HIV reverse transcriptase. In one strain the reverse transcriptase has the Y181C mutation and in the other strain the reverse transcriptase has the K103N mutation. The mutations were generated with the QUIKCHANGE site-directed mutagenesis kit (Stratagene).

[2] = system: HIV strain containing the K103N mutation; assay: Spread assay: inhibition of HIV replication (K103N mutant strain); assay type: cell-based; details: Human immunodeficiency virus 1, read-out: Spread (K103N) CIC95
Description: (§3) Assays for the inhibition of acute HIV-1 infection of T-lymphoid cells (alternatively referred to herein as the “spread assay”) were conducted in accordance with Vacca, J. P. et al., Proc. Natl. Acad. Sci. USA 1994, 91: 4096. The assays tested for inhibition of wild type HIV-1 and of HIV strains containing the Y181C or K103N mutation. […] The compounds of Examples 1 to 4 had CIC95 values of less than 10 micromolar in the assay employing the K103N mutant strain. […] Table C also reports the CIC95 values of the compounds of Examples 1-7, 9-13 and 15-29 obtained in the assays employing the Y181C mutant strain and the K103N mutant strain.

[3] = target: HIV-1 RT enzyme (wild-type) (Human immunodeficiency virus type 1 group M subtype B, UniProt P04585); assay: ECL assay for inhibition of HIV reverse transcriptase (WT); assay type: biochemical
Description: as §1

[4] = target: T2, mutant HIV reverse transcriptase (K103N mutation) (Human immunodeficiency virus type 1 group M subtype B, UniProt P04585, K690N); assay: ECL assay for inhibition of mutant HIV reverse transcriptase (K103N); assay type: biochemical
T2 construct: against mutant HIV reverse transcriptase; made in house
Description: as §1, §2

wild type HIV-1 = assay: Spread assay: inhibition of acute HIV-1 infection of T-lymphoid cells (WT); assay type: cell-based; details: Human immunodeficiency virus 1, T-lymphoid; wild-type strain; 10% FBS; read-out: Spread (WT) CIC95
Description: as §3

[5] = system: HIV strain containing the Y181C mutation; assay: Spread assay: inhibition of HIV replication (Y181C mutant strain); assay type: cell-based; details: Human immunodeficiency virus 1, read-out: Spread (Y181C) CIC95
Description: as §3

[6] = Y181C mutant RT, read-out: ECL Assay (Y181C) IC50
[7] = K103N mutant RT, read-out: ECL Assay (K103N) IC50

| Compound | IC50 [1, 6] | IC95 [2] | IC50 [3] | IC50 [4, 7] | IC95 (wild type HIV-1) | IC95 [5] | IC50 [1] | IC50 [4] |
| --- | --- | --- | --- | --- | --- | --- | --- | --- |
| N#Cc1cc(Cl)cc(Oc2c(Cl)ccc3c2nnn3Cc2nnc(-c3ccccc3)o2)c1 [Example 23, 3-chloro-5-({5-chloro-1-[(5-phenyl-1,3,4-oxadiazol-2-yl)methyl]-1H-1,2,3-benzotriazol-4-yl}oxy)benzonitrile] | 3.4 nM | > 833 nM | 6.1 nM | 10 nM | 96 nM | – | – | – |
| N#Cc1cc(Cl)cc(Oc2c(Cl)ccc3c2cnn3Cc2n[nH]c3c2ccc[n+]3[O-])c1 [Example 5, 3-chloro-5-({5-chloro-1-[(7-oxido-1H-pyrazolo[3,4-b]pyridin-3-yl)methyl]-1H-indazol-4-yl}oxy)benzonitrile] | 1.8 nM | 23 nM | 0.62 nM | 1.3 nM | 11 nM | 105 nM | – | – |
| N#Cc1cc(Cl)cc(Oc2c(Cl)ccc3c2nnn3Cc2n[nH]c3nc(N)ccc23)c1Cl [Example 22, 3-({1-[(6-amino-1H-pyrazolo[3,4-b]pyridin-3-yl)methyl]-5-chloro-1H-1,2,3-benzotriazol-4-yl}oxy)-2,5-dichlorobenzonitrile] | 0.79 nM | 9 nM | 0.52 nM | 0.8 nM | 4 nM | – | – | – |
| N#Cc1cc(Cl)cc(Oc2c(Cl)ccc3c2cnn3Cc2n[nH]c3ncccc23)c1 [Example 1, 3-Chloro-5-{[5-chloro-1-(1H-pyrazolo[3,4-b]pyridin-3-ylmethyl)-1H-indazol-4-yl]oxy}benzonitrile] | 0.6 nM | 17 nM | 0.35 nM | 0.57 nM | 13 nM | 69 nM | – | – |
| CN(Cc1ccccc1Cl)C(=O)Cn1nnc2c(Oc3cc(Cl)cc(C#N)c3)c(Cl)ccc21 [Example 9, N-(2-chlorobenzyl)-2-[5-chloro-4-(3-chloro-5-cyanophenoxy)-1H-1,2,3-benzotriazol-1-yl]-N-methylacetamide] | 137 nM | 807 nM | 61 nM | 74 nM | 770 nM | – | – | – |
| N#Cc1cc(Cl)cc(Oc2c(Cl)ccc3c2nnn3CC(=O)Nc2ccncc2C(F)(F)F)c1 [Example 13, 2-[5-chloro-4-(3-chloro-5-cyanophenoxy)-1H-1,2,3-benzotriazol-1-yl]-N-[3-(trifluoromethyl)pyridin-4-yl]acetamide] | 2.4 nM | 151 nM | 1 nM | 3 nM | 45 nM | 382 nM | – | – |
| N#Cc1cc(Cl)cc(Oc2c(Cl)ccc3nn(Cc4nnc(-c5ccccc5)o4)nc23)c1 [Example 24, 3-chloro-5-({5-chloro-2-[(5-phenyl-1,3,4-oxadiazol-2-yl)methyl]-2H-1,2,3-benzotriazol-4-yl}oxy)benzonitrile] | 47 nM | > 833 nM | 46 nM | 150 nM | > 833 nM | – | – | – |
| N#Cc1cc(Cl)cc(Oc2c(Cl)ccc3c2CCCN3Cc2n[nH]c3ncccc23)c1 [Example 27, 3-chloro-5-{[6-chloro-1-(1H-pyrazolo[3,4-b]pyridine-3-ylmethyl)-1,2,3,4-tetrahydroquinolin-5-yl]oxy}benzonitrile] | 160 nM | 7730 nM | 160 nM | 640 nM | 3280 nM | – | – | – |
| N#Cc1cc(Cl)cc(Oc2c(Cl)ccc3c2nnn3CC(=O)c2cccnc2)c1 [Example 11, 3-chloro-5-{[5-chloro-1-(2-oxo-2-pyridin-3-ylethyl)-1H-1,2,3-benzotriazol-4-yl]oxy}benzonitrile] | 30 nM | 433 nM | 18 nM | 52 nM | 381 nM | – | – | – |
| NCc1cc(Cl)cc(Oc2c(Cl)ccc3c2nnn3Cc2n[nH]c3ncccc23)c1Cl [Example 21, 1-(2,5-dichloro-3-{[5-chloro-1-(1H-pyrazolo[3,4-b]pyridin-3-ylmethyl)-1H-1,2,3-benzotriazol-4-yl]oxy}phenyl)methanamine] | – | 192 nM | – | 4.2 nM | 58 nM | 417 nM | – | – |
| Cc1ccn2c(Cc3n[nH]c4ncccc34)ncc2c1Oc1cc(Cl)cc(C#N)c1 [Example 25, 3-chloro-5-{[7-methyl-3-(1H-pyrazolo[3,4-b]pyridin-3-ylmethyl)imidazo[1,5-a]pyridin-8-yl]oxy}benzonitrile trifluoroacetate] | – | 362 nM | 20 nM | – | 115 nM | – | 33 nM | 37 nM |
| N#Cc1cc(Cl)cc(Oc2c(Cl)ccc3c2nnn3CCO)c1 [Example 28, 3-chloro-5-{[5-chloro-1-(2-hydroxyethyl)-1H-1,2,3-benzotriazol-4-yl]oxy}benzonitrile] | 77 nM | > 833 nM | 68 nM | 210 nM | 557 nM | – | – | – |
| N#Cc1cc(Cl)cc(Oc2c(Cl)ccc3c2nnn3CC(=O)N2CCCC(C(N)=O)C2)c1 (centres unmarked) [Example 16, 1-{[5-chloro-4-(3-chloro-5-cyanophenoxy)-1H-1,2,3-benzotriazol-1-yl]acetyl}piperidine-3-carboxamide] | 790 nM | > 833 nM | 1100 nM | > 1800 nM | > 833 nM | – | – | – |
| N#Cc1cc(Cl)cc(Oc2c(Cl)ccc3c2cnn3Cc2n[nH]c3nc(N)ccc23)c1 [Example 3, 3-{[5-Chloro-4-(3-chloro-5-cyanophenoxy)-1H-indazol-1-yl]methyl}-1H-pyrazolo[3,4-b]pyridin-6-aminium chloride] | 1.9 nM | 23 nM | 0.6 nM | 1.7 nM | 9 nM | 77 nM | – | – |
| N#Cc1cc(Cl)cc(Oc2c(Cl)ccc3nn(Cc4n[nH]c5ncccc45)nc23)c1Cl [Example 20, 2,5-dichloro-3-{[5-chloro-2-(1H-pyrazolo[3,4-b]pyridin-3-ylmethyl)-2H-1,2,3-benzotriazol-4-yl]oxy}benzonitrile] | 2.5 nM | > 833 nM | 2.1 nM | 55 nM | 420 nM | – | – | – |
| N#Cc1cc(C#N)cc(Oc2c(Cl)ccc3c2nnn3Cc2n[nH]c3ncccc23)c1 [Example 29, 5-{[5-chloro-1-(1H-pyrazolo[3,4-b]pyridin-3-ylmethyl)-1H-1,2,3-benzotriazol-4-yl]oxy}isophthalonitrile] | 1.3 nM | 3.1 nM | 0.9 nM | 1.4 nM | 2.5 nM | – | – | – |
| N#Cc1cc(Cl)cc(Oc2c(Cl)ccc3c2nnn3CC(=O)OCc2ccccc2)c1 [Example 15] | 1.5 nM | > 833 nM | 2.4 nM | 12 nM | > 833 nM | – | – | – |
| N#Cc1cc(Cl)cc(Oc2c(Cl)ccc3c2c(Cl)nn3Cc2n[nH]c3ncccc23)c1 [Example 2, 3-Chloro-5-{[3,5-dichloro-1-(1H-pyrazolo[3,4-b]pyridin-3-ylmethyl)-1H-indazol-4-yl]oxy}benzonitrile] | 25 nM | 2090 nM | 3.9 nM | 12 nM | 521 nM | – | – | – |
| Cc1ccn2c(Cc3n[nH]c4ncccc34)nnc2c1Oc1cc(Cl)cc(C#N)c1 [Example 26, 3-chloro-5-{[7-methyl-3-(1H-pyrazolo[3,4-b]pyridin-3-ylmethyl)[1,2,4]triazolo[4,3-a]pyridin-8-yl]oxy}benzonitrile trifluoroacetate] | – | > 833 nM | 220 nM | – | > 833 nM | – | 1200 nM | 820 nM |
